The Ki is the dissociation constant of the complex between target and ligand, obtained from inhibition or displacement.

Each structure is given as a SMILES string.

Experimental findings from patent US10053417B2, “Neprilysin inhibitors” (THERAVANCE BIOPHARMA R&D IP, LLC, priority 2013, dated 2018) are described below.

The target of this assay is T1, human NEP (Homo sapiens, UniProt P08473).
T1 construct: purchased R&D Systems, Minneapolis, Minn; 1182-ZN
Put plainly: In vitro enzyme inhibition assay, inhibitor potency at human NEP (Assay 1). The conditions noted are these: recombinant human NEP; fluorogenic peptide substrate 10 μM; 37° C.; values given as ranges. Format: biochemical. An outline of the steps:
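Recombinant human NEP pre-incubated 30 min at 37 °C with compound ([…]), then 10 μM Mca-D-Arg-Arg-Leu-Dap-(Dnp)-OH added in 50 mM HEPES pH 7.5, 100 mM NaCl, 0.01% Tween-20, 10 μM ZnSO4; stopped after 20 min with acetic acid. Fluorescence ex 320/em 405 nm; Ki from nonlinear regression, reported as pKi.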

T1 sequence (P08473 52-750 limits assumed): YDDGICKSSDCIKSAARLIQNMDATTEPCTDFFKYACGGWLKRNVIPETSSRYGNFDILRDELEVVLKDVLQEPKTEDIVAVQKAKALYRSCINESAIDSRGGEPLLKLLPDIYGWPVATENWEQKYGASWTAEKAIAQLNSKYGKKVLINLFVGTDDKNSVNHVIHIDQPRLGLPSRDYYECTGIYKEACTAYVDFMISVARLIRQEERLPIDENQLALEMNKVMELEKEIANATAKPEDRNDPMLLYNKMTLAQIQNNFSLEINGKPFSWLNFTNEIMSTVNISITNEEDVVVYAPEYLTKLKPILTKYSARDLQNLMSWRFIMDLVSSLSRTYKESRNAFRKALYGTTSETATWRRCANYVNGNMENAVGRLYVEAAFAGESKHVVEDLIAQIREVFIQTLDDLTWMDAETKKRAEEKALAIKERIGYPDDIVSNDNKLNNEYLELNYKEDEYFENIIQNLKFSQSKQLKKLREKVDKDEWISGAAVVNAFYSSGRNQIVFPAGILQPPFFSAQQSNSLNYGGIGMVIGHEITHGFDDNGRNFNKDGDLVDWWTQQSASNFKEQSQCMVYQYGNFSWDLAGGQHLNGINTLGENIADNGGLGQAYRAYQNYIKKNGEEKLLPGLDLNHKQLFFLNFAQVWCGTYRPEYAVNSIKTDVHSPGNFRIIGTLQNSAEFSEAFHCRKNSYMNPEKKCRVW

Consider `O=C(NNC(=O)c1ccc(Cl)nc1)C(=O)N[C@H](Cc1ccc(-c2cccc(Cl)c2)cc1)C[C@@H](O)C(=O)O` [Example 8-2, (2R,4R)-5-(3′-Chlorobiphenyl-4-yl)-4-{2-[N′-(6-chloro-pyridine-3-carbonyl)-hydrazino]-2-oxo-acetylamino}-2-hydroxypentanoic acid], for which the inhibitory constant (Ki) was 0.001 to 0.01 µM.
Regarding `O=C(NNC(=O)c1cccnc1)C(=O)N[C@H](Cc1ccc(-c2cccc(Cl)c2)cc1)C[C@@H](O)C(=O)O` [Example 8-3, (2R,4R)-5-(3′-Chlorobiphenyl-4-yl)-2-hydroxy-4-{2-oxo-2-[N′-(pyridine-3-carbonyl)-hydrazino]acetylamino}pentanoic acid], the Ki is 0.001 to 0.01 µM.
`O=C(NNC(=O)c1ccncc1)C(=O)N[C@H](Cc1ccc(-c2cccc(Cl)c2)cc1)C[C@@H](O)C(=O)O` [Example 8-4, (2R,4R)-5-(3′-Chlorobiphenyl-4-yl)-2-hydroxy-4-{2-oxo-2-[N′-(pyridine-4-carbonyl)-hydrazino]acetylamino}pentanoic acid]: the Ki was 0.001 to 0.01 µM.
For `O=C(NNC(=O)c1ccco1)C(=O)N[C@H](Cc1ccc(-c2cccc(Cl)c2)cc1)C[C@@H](O)C(=O)O` [Example 8-5, (2R,4R)-5-(3′-Chlorobiphenyl-4-yl)-4-{2-[N′-(furan-2-carbonyl)-hydrazino]-2-oxo-acetylamino}-2-hydroxypentanoic acid], the Ki was 0.001 to 0.01 µM.
With `O=C(NNC(=O)c1ccccc1[N+](=O)[O-])C(=O)N[C@H](Cc1ccc(-c2cccc(Cl)c2)cc1)C[C@@H](O)C(=O)O` [Example 8-6, (2R,4R)-5-(3′-Chlorobiphenyl-4-yl)-2-hydroxy-4-{2-[N′-(2-nitro-benzoyl)-hydrazino]-2-oxo-acetylamino}pentanoic acid], the inhibitory constant (Ki) was 0.001 to 0.01 µM.
With `O=C(N[C@H](Cc1ccc(-c2cccc(Cl)c2)cc1)C[C@@H](O)C(=O)O)C1CCCCO1` (stereo partly drawn) [Example 9, (2R,4R)-5-(3′-Chlorobiphenyl-4-yl)-2-hydroxy-4-[(tetrahydropyran-2-carbonyl)amino]pentanoic Acid], the Ki is 0.001 to 0.01 µM.
For the compound `O=C(CO)N[C@H](Cc1ccc(-c2cccc(Cl)c2)cc1)C[C@@H](O)C(=O)O` [Example 10-1, (2R,4R)-5-(3′-Chlorobiphenyl-4-yl)-2-hydroxy-4-(2-hydroxyacetylamino)-pentanoic acid], the Ki is 0.001 to 0.01 µM.
On to `COCC(=O)N[C@H](Cc1ccc(-c2cccc(Cl)c2)cc1)C[C@@H](O)C(=O)O` [Example 10-2, (2R,4R)-5-(3′-Chlorobiphenyl-4-yl)-2-hydroxy-4-(2-methoxyacetylamino)-pentanoic acid], for which the inhibitory constant (Ki) is 0.001 to 0.01 µM.
In the case of `CCOCC(=O)N[C@H](Cc1ccc(-c2cccc(Cl)c2)cc1)C[C@@H](O)C(=O)O` [Example 10-3, (2R,4R)-5-(3′-Chlorobiphenyl-4-yl)-4-(2-ethoxyacetylamino)-2-hydroxy-pentanoic acid], the Ki is 0.01 to 0.0316 µM.
`CC(C)OCC(=O)N[C@H](Cc1ccc(-c2cccc(Cl)c2)cc1)C[C@@H](O)C(=O)O` [Example 10-4, (2R,4R)-5-(3′-Chlorobiphenyl-4-yl)-2-hydroxy-4-(2-isopropoxyacetylamino)-pentanoic acid]: the Ki was 0.01 to 0.0316 µM.
On to `O=C(COc1cccnc1)N[C@H](Cc1ccc(-c2cccc(Cl)c2)cc1)C[C@@H](O)C(=O)O` [Example 10-5, (2R,4R)-5-(3′-Chlorobiphenyl-4-yl)-2-hydroxy-4-[2-(pyridin-3-yloxy)-acetylamino]-pentanoic acid], for which the Ki was 0.001 to 0.01 µM.
As for `O=C(COCc1ccccc1)N[C@H](Cc1ccc(-c2cccc(Cl)c2)cc1)C[C@@H](O)C(=O)O` [Example 10-6, (2R,4R)-4-(2-Benzyloxy-acetylamino)-5-(3′-chlorobiphenyl-4-yl)-2-hydroxy-pentanoic acid], the Ki was 0.01 to 0.0316 µM.
In the case of `O=C(COc1ccccc1)N[C@H](Cc1ccc(-c2cccc(Cl)c2)cc1)C[C@@H](O)C(=O)O` [Example 10-7, (2R,4R)-5-(3′-Chlorobiphenyl-4-yl)-2-hydroxy-4-(2-phenoxyacetylamino)-pentanoic acid], the inhibition constant (Ki) was 0.01 to 0.0316 µM.
On to `O=C(COc1ccc(O)cc1)N[C@H](Cc1ccc(-c2cccc(Cl)c2)cc1)C[C@@H](O)C(=O)O` [Example 10-8, (2R,4R)-5-(3′-Chlorobiphenyl-4-yl)-2-hydroxy-4-[2-(4-hydroxyphenoxy)-acetylamino]-pentanoic acid], for which the Ki was 0.01 to 0.0316 µM.
In the case of `COc1cccc(OCC(=O)N[C@H](Cc2ccc(-c3cccc(Cl)c3)cc2)C[C@@H](O)C(=O)O)c1` [Example 10-9, (2R,4R)-5-(3′-Chlorobiphenyl-4-yl)-2-hydroxy-4-[2-(3-methoxyphenoxy)-acetylamino]-pentanoic acid], the Ki is 0.01 to 0.0316 µM.
On to `COCC(=O)N[C@H](Cc1ccc(-c2cccc(Cl)c2)cc1)C[C@@](C)(CO)C(=O)O` [Example 11, (2S,4R)-5-(3′-Chlorobiphenyl-4-yl)-2-hydroxymethyl-4-(2-methoxy-acetylamino)-2-methylpentanoic Acid], for which the Ki is 0.001 to 0.01 µM.
Take `C[C@@](CO)(C[C@@H](Cc1ccc(-c2cccc(Cl)c2)cc1)NC(=O)COCc1ccccc1)C(=O)O` [Example 12, (2S,4R)-4-(2-Benzyloxyacetylamino)-5-(3′-chlorobiphenyl-4-yl)-2-hydroxymethyl-2-methyl-pentanoic acid]: the Ki is 0.01 to 0.0316 µM.
As to `C[C@@](CO)(C[C@@H](Cc1ccc(-c2cccc(Cl)c2)cc1)NC=O)C(=O)O` [Example 13, (2S,4R)-5-(3′-Chlorobiphenyl-4-yl)-4-formylamino-2-hydroxymethyl-2-methyl-pentanoic Acid], the Ki was 0.001 to 0.01 µM.
